Results taken from ChEMBL document CHEMBL2385067, “Preparation of S14161 and its analogues and the discovery of 6-bromo-8-ethoxy-3-nitro-2H-chromene as a more potent antitumor agent in vitro” (2013).
The source made the active and inactive calls. The calls are words filed in the database; no cut-off is given here.

Legend:
[1] = tested on: LP-1; experiment: Cytotoxicity against human LP-1 cells after 24 to 72 hrs by SRB assay; format: functional
[2] = tested on: K562; experiment: Cytotoxicity against human K562 cells after 24 to 72 hrs by SRB assay; format: functional
[3] = tested on: HeLa; experiment: Inhibition of PI3K in human HeLa cells assessed as inhibition of EGF1-induced AKT phosphorylation up to 20 uM after 24 hrs by Western blot analysis; format: cell-based
[4] = tested on: SK-OV-3; experiment: Inhibition of PI3K in human SKOV3 cells assessed as inhibition of EGF1-induced AKT phosphorylation up to 20 uM after 24 hrs by Western blot analysis; format: cell-based
[5] = tested on: HUVEC; experiment: Antiangiogenic activity in HUVEC assessed as inhibition of cell migration by measuring area of wounded gap at 5 uM after 8 to 24 hrs by wound healing assay; format: functional, Homo sapiens; design: scale not given: the % may be the effect or the level left
[6] = tested on: HeLa; experiment: Growth inhibition of human HeLa cells at 20 uM after 24 hrs by SRB assay; format: functional
[7] = tested on: HeLa; experiment: Growth inhibition of human HeLa cells at 5 uM after 24 hrs by SRB assay; format: functional, cell-based
[8] = tested on: A549; experiment: Growth inhibition of human A549 cells at 5 to 20 uM after 24 hrs by SRB assay; format: functional, cell-based
[9] = tested on: SPCA1; experiment: Growth inhibition of human SPCA1 cells at 20 uM after 72 hrs by SRB assay; format: functional, cell-based
[10] = tested on: NCI-H460; experiment: Growth inhibition of human H460 cells at 20 uM after 72 hrs by SRB assay; format: functional, cell-based
[11] = tested on: HeLa; experiment: Growth inhibition of human HeLa cells at 20 uM after 72 hrs by SRB assay; format: functional, cell-based
[12] = tested on: A549; experiment: Growth inhibition of human A549 cells at 20 uM after 72 hrs by SRB assay; format: functional, cell-based
[13] = tested on: H47D; experiment: Growth inhibition of human H47D cells at 20 uM after 72 hrs by SRB assay; format: functional, cell-based
[14] = tested on: SK-OV-3; experiment: Growth inhibition of human SKOV3 cells at 20 uM after 72 hrs by SRB assay; format: functional, cell-based
[15] = tested on: PC-3; experiment: Growth inhibition of human PC3 cells at 20 uM after 72 hrs by SRB assay; format: functional, cell-based
[16] = Cytotoxicity against human U87 cells after 24 to 72 hrs by SRB assay; format: functional, U-87MG ATCC; conditions: U-87 MG
[17] = tested on: B16; experiment: Cytotoxicity against mouse B16 cells after 24 to 72 hrs by SRB assay; format: functional
[18] = tested on: MDA-MB-231; experiment: Cytotoxicity against human MDA-MB-231 cells after 24 to 72 hrs by SRB assay; format: functional
[19] = tested on: A549; experiment: Induction of apoptosis in human A549 cells assessed as activation of caspase-3 at 10 uM; format: functional, cell-based
[20] = tested on: SK-OV-3; experiment: Inhibition of PI3K in human SKOV3 cells assessed as inhibition of EGF1-induced AKT protein level up to 20 uM after 24 hrs by Western blot analysis; format: cell-based
[21] = tested on: A549; experiment: Inhibition of PI3K in human A549 cells assessed as inhibition of EGF1-induced AKT protein level up to 20 uM after 24 hrs by Western blot analysis; format: cell-based
[22] = tested on: H47D; experiment: Inhibition of PI3K in human H47D cells assessed as inhibition of EGF1-induced AKT phosphorylation up to 20 uM after 24 hrs by Western blot analysis; format: cell-based
[23] = tested on: A549; experiment: Induction of apoptosis in human A549 cells assessed as activation of caspase-3 at 5 uM; format: functional, cell-based
[24] = tested on: A549; experiment: Inhibition of PI3K in human A549 cells assessed as inhibition of EGF1-induced AKT phosphorylation up to 20 uM after 24 hrs by Western blot analysis; format: cell-based
[25] = tested on: HeLa; experiment: Growth inhibition of human HeLa cells after 24 hrs by SRB assay; format: functional, cell-based
[26] = tested on: H47D; experiment: Inhibition of PI3K in human H47D cells assessed as inhibition of EGF1-induced AKT protein level up to 20 uM after 24 hrs by Western blot analysis; format: cell-based
[27] = tested on: HeLa; experiment: Inhibition of PI3K in human HeLa cells assessed as inhibition of EGF1-induced AKT protein level up to 20 uM after 24 hrs by Western blot analysis; format: cell-based

| Structure (SMILES) | GI50 [1] [nM] | GI50 [2] [nM] | inhibition [3] | inhibition [4] | Activity [5] [%] | growth inhibition (GI) [7] | growth inhibition (GI) [8] | growth inhibition (GI) [9] | growth inhibition (GI) [10] | growth inhibition (GI) [11] | growth inhibition (GI) [12] | growth inhibition (GI) [13] | growth inhibition (GI) [14] | growth inhibition (GI) [15] | GI50 [16] [nM] | GI50 [17] [nM] | GI50 [18] [nM] | Activity [19] | other results |
| --- | --- | --- | --- | --- | --- | --- | --- | --- | --- | --- | --- | --- | --- | --- | --- | --- | --- | --- | --- |
| CCOc1cccc2c1OC(c1ccccc1)C([N+](=O)[O-])=C2 (centres undefined) | 960 | 1180 | – | – | – | – | – | – | – | – | – | – | – | – | – | – | – | – | – |
| CCOc1cccc2c1OC(c1ccc(C#N)cc1)C([N+](=O)[O-])=C2 (centres undefined) | 440 | 1020 | – | – | – | – | – | – | – | – | – | – | – | – | – | – | – | – | – |
| CCOc1cccc2c1OC(c1ccc(OC)cc1)C([N+](=O)[O-])=C2 (centres undefined) | 3160 | 4860 | – | – | – | – | – | – | – | – | – | – | – | – | – | – | – | – | – |
| CCOc1cccc2c1OC(c1ccc(F)cc1)C([N+](=O)[O-])=C2 (centres undefined) | 570 | 1240 | Active | Active | <50 | Active | Active | Active | Active | Active | Active | Active | Active | Active | 18700 | 23300 | 8530 | Active | growth inhibition (GI) [6]: Active |
| CCOc1cccc2c1OCC([N+](=O)[O-])=C2 | 640 | 1680 | – | – | – | – | – | – | – | – | – | – | – | – | – | – | – | – | – |
| CCOc1cc(Br)cc2c1OCC([N+](=O)[O-])=C2 | 330 | 920 | Active | Active | 20 | Active | Active | Active | Active | Active | Active | Active | Active | Active | 12600 | 20400 | 2030 | Active | inhibition [20]: inactive; inhibition [21]: inactive; inhibition [22]: Active; Activity [23]: Active; inhibition [24]: Active; inhibition of growth at 20 µM ([6]; read-out: GI): > 90%; growth inhibition (GI) [25]: Dose-dependent effect; inhibition [26]: inactive; inhibition [27]: inactive |
